The source of these data is paper PMC5761213 (Journal of Pharmaceutical Analysis, 2014).

Data set [1] has as its target T1, CYP1A2 (Homo sapiens, UniProt P05177).
T1 sequence (P05177 1-516): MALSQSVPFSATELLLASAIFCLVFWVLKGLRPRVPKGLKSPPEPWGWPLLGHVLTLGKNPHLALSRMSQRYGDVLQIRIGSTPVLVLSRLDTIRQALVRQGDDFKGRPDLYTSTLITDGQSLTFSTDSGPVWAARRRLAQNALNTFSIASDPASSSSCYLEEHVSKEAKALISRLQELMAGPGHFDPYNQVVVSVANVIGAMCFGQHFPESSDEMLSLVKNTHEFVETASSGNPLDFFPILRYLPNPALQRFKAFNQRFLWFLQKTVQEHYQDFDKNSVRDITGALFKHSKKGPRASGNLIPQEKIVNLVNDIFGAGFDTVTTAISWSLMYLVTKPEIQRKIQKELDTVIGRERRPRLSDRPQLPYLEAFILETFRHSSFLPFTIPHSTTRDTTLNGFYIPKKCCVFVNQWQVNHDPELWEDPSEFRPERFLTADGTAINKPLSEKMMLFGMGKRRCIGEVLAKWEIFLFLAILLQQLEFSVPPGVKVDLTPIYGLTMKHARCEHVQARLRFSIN
The experiment in a line: Effect of DMSO on CYP activity in human liver microsomes. Format: in vitro ADME. On the technique in general: Liver microsomes are a subcellular fraction often used to study metabolism.

Data set [2] has as its target T2, CYP2C8 (Homo sapiens, UniProt P10632).
T2 sequence (P10632 1-490): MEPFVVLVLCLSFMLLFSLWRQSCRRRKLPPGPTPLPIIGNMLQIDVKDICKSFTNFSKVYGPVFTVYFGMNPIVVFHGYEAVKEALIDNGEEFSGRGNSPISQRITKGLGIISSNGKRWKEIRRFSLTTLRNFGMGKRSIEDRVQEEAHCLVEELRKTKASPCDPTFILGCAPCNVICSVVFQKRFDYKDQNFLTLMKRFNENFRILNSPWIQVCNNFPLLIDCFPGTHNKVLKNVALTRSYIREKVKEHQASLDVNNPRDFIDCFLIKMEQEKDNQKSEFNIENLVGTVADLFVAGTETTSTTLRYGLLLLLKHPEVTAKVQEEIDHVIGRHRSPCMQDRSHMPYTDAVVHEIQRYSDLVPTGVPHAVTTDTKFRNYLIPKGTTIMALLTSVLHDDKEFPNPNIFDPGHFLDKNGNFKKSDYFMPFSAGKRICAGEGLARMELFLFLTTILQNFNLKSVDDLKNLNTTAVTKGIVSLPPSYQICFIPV
The data set is described as above. It is filed as in vitro ADME.

Data set [3] concerns the target T3, CYP2C19 (Homo sapiens, UniProt P33261). Described as above. Format: in vitro ADME. The note with it: for activity loss: percent decrease of metabolite formation.
Data set [4] has as its target CYP2D6 (Homo sapiens, UniProt P10635). The description is as above. Format: in vitro ADME.
Data set [5] concerns the target CYP3A4 (Homo sapiens, UniProt P08684). The description is as above. Format: in vitro ADME. The note with it: for activity loss: percent decrease of metabolite formation.
The target in data set [6] is T3, CYP2C19. Nature of the data set: CYP inhibition assay in human liver microsomes, S-mephenytoin probe. It is filed as in vitro ADME. The note with it: IC50 calculated without SC, Single, pooled human liver microsomes, analyte-to-IS peak area ratio.
Data set [7] addresses T3, CYP2C19. The note with it: literature value, cited from earlier work.
[8] abbreviates: 0.5% DMSO, concentration set for the cocktail assay.

Broadly, the IC50 is the concentration that gives 50% inhibition. By Ki is commonly meant a measure of affinity in units of concentration, obtained from inhibition or displacement.

Like-named read-outs stand apart in the source and are kept apart here.

Chain of CYP2D6 (P10635 whole entry): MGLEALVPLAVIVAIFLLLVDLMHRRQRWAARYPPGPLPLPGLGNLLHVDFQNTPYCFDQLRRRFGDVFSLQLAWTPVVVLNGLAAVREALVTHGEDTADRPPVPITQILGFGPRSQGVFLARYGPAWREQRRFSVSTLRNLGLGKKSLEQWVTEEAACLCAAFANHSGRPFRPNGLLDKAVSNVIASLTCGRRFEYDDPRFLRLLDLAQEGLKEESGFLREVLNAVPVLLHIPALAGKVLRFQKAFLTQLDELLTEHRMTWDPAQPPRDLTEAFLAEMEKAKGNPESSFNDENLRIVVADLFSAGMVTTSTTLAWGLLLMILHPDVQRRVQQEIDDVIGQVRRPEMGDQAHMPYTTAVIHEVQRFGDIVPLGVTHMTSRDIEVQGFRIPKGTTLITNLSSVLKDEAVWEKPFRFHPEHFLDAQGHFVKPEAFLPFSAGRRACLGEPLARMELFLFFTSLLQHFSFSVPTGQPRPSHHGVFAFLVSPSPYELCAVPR
T3 sequence (P33261 whole entry): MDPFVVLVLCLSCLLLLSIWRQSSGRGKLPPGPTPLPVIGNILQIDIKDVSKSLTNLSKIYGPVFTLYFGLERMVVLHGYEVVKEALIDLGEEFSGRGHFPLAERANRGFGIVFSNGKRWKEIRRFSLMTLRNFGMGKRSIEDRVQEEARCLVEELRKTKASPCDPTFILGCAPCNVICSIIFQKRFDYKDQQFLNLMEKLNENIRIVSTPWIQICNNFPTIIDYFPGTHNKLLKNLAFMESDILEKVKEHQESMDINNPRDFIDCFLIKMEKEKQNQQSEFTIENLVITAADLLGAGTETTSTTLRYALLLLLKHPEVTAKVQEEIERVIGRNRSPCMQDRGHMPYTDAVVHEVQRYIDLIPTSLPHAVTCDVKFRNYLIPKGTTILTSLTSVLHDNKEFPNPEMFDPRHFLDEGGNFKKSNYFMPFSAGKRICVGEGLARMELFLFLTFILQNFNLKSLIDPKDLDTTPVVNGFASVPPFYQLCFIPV
Chain of CYP3A4 (P08684 whole entry): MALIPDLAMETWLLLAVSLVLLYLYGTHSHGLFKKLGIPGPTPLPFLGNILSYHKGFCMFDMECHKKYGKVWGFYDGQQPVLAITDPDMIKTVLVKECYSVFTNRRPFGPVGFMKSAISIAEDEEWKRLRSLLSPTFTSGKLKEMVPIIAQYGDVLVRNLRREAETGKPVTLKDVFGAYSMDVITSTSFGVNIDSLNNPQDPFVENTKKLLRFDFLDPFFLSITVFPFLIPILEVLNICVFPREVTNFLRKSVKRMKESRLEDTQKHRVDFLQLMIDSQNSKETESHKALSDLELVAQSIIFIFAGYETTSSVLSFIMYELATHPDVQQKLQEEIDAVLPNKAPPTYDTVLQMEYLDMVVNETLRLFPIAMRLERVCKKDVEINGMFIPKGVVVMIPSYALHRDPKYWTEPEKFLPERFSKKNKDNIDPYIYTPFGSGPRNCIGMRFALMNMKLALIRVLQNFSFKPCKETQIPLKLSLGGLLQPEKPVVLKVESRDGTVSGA

Take `C[S+](C)[O-]` [DMSO]: the “reduction of metabolite formation” value in data set [1] (0.1% DMSO), in data set [2] (0.1% DMSO), in data set [3] (0.1% DMSO), in data set [4] (0.1% DMSO) and in data set [5] (0.1% DMSO) was “no significant reduction” each time. Moreover, the “CYP activity reduced by” value in data set [1] (setting [8]) worked out at 8%; in data set [2] (setting [8]), 11%; in data set [3] (setting [8]), 44%; in data set [4] (setting [8]), 12%. Besides, the “effect of DMSO on CYP activity” value in data set [1] (DMSO up to 1%) and in data set [2] (DMSO up to 1%) was “not significantly affected” each time. Moreover, the activity loss came to 44.8% in data set [3] (0.5% DMSO (v/v)); 55.0% in data set [3] (1% DMSO (v/v)); 27.8% in data set [4] (1% DMSO (v/v), percent decrease of metabolite formation); 24.4% in data set [5] (0.5% DMSO (v/v)); 52.7% in data set [5] (1% DMSO (v/v)).

Consider `C=C(C)[C@@H]1CCC2=CC(=O)C[C@@H](C)[C@]2(C)C1` [Nootkatone], for which the IC50 in data set [6] is 7.19 µM; in data set [7] (read-out: reported IC50), 9.56 µM. Also, in data set [7] (read-out: reported Ki), the inhibition constant Ki was 0.5 µM.
